Source: US10308639B2, “Phosphatidylinositol 3-kinase inhibitors” (Gilead Sciences, Inc., priority 2014, dated 2019)
Where two headings read alike, the source gives them in different places.

Assays:
Format in all cases: biochemical
[1] = molecular target: T1, PI3Kβ (Homo sapiens, UniProt P42338); test: TR-FRET enzymatic activity assay, PI3Kβ; details: Table 2; TR-FRET, 2x Km ATP, 30 minutes at 25° C.
T1 construct: made in house

[2] = molecular target: T2, PI3Kδ (Homo sapiens, UniProt O00329); test: TR-FRET enzymatic activity assay, PI3Kδ; details: Table 2; TR-FRET, 2x Km ATP, 30 minutes at 25° C.
T2 construct: made in house
T2 sequence (O00329 whole entry): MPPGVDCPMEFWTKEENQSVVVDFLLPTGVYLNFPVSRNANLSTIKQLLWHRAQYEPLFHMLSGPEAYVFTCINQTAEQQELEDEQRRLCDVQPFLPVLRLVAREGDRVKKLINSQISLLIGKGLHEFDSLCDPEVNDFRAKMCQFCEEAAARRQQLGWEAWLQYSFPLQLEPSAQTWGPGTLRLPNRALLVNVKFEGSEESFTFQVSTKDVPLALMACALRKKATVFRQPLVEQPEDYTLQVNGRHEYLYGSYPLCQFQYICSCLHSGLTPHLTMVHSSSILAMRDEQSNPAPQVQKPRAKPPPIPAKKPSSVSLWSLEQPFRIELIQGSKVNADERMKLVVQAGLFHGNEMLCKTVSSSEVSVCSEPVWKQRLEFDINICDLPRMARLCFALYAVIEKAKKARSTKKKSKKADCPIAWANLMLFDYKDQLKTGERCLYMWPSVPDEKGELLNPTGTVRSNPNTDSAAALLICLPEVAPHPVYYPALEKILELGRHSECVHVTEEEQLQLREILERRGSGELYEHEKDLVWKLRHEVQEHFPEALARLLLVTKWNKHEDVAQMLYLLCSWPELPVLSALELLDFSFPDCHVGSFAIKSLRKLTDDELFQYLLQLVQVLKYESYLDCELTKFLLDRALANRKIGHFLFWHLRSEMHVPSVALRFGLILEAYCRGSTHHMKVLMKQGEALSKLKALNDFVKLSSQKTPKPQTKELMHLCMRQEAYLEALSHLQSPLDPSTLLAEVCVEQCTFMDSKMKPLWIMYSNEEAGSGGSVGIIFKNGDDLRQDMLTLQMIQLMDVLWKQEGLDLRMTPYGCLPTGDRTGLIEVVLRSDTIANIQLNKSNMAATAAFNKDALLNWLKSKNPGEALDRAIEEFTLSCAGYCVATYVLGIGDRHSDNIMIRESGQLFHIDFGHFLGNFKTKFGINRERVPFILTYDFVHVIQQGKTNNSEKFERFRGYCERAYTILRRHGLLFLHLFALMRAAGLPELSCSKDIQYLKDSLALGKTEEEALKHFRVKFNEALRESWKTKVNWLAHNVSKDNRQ
T2 sequence (P27986 whole entry partner): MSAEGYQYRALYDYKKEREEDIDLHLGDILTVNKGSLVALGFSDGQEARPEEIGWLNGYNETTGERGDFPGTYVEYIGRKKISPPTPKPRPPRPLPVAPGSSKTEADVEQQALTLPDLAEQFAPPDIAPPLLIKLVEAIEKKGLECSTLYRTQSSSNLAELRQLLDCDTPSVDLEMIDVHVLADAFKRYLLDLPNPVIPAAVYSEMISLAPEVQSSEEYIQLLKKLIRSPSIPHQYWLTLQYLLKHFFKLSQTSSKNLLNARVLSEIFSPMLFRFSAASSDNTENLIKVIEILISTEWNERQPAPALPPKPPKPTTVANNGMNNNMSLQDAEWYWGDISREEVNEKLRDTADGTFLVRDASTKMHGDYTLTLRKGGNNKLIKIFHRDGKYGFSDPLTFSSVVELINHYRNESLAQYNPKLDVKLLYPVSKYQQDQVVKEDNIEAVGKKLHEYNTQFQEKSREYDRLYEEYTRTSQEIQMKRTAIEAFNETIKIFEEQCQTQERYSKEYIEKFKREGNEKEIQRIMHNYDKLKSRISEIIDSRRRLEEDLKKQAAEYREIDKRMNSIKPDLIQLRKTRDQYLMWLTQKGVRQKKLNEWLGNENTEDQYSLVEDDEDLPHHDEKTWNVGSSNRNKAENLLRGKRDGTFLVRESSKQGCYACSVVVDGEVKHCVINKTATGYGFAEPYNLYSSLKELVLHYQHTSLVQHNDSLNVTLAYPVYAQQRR

[3] = molecular target: T3, PI3Kγ (Homo sapiens, UniProt P48736); test: TR-FRET enzymatic activity assay, PI3Kγ; details: read-out: PI3Kγ IC50
T3 construct: made in house
T3 sequence (P48736 whole entry): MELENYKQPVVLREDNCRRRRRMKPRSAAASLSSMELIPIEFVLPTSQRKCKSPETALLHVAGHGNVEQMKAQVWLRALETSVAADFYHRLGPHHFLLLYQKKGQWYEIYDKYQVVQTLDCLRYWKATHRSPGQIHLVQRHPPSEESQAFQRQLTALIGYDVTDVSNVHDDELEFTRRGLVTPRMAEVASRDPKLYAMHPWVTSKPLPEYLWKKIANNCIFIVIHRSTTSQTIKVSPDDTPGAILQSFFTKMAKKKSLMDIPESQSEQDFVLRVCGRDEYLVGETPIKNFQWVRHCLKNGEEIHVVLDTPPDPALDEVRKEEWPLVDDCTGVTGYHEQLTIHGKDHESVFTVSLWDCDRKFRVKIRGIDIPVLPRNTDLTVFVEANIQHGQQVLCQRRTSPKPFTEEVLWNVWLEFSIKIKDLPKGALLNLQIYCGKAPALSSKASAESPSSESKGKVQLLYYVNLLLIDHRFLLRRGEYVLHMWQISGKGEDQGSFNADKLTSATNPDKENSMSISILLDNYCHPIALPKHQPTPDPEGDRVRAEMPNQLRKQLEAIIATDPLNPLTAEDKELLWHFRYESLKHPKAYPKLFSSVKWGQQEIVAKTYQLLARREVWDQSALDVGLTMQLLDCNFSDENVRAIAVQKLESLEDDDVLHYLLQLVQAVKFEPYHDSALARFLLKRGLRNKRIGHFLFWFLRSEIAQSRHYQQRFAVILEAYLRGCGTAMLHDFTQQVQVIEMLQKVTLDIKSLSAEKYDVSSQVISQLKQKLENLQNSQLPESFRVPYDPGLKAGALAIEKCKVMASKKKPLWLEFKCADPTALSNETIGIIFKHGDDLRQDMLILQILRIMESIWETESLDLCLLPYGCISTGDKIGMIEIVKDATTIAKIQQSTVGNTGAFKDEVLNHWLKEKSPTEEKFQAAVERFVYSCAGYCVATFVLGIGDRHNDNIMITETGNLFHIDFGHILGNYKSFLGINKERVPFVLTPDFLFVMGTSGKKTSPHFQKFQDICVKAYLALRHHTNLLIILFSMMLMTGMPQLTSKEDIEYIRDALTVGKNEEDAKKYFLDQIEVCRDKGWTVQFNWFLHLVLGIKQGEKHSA
Outline: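 Activity measured by time-resolved FRET; each isoform tested in its own enzymatic reaction.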

[4] = Table 2, TR-FRET, 2x Km ATP, 30 minutes at 25° C.

T1 sequence (P42338 whole entry): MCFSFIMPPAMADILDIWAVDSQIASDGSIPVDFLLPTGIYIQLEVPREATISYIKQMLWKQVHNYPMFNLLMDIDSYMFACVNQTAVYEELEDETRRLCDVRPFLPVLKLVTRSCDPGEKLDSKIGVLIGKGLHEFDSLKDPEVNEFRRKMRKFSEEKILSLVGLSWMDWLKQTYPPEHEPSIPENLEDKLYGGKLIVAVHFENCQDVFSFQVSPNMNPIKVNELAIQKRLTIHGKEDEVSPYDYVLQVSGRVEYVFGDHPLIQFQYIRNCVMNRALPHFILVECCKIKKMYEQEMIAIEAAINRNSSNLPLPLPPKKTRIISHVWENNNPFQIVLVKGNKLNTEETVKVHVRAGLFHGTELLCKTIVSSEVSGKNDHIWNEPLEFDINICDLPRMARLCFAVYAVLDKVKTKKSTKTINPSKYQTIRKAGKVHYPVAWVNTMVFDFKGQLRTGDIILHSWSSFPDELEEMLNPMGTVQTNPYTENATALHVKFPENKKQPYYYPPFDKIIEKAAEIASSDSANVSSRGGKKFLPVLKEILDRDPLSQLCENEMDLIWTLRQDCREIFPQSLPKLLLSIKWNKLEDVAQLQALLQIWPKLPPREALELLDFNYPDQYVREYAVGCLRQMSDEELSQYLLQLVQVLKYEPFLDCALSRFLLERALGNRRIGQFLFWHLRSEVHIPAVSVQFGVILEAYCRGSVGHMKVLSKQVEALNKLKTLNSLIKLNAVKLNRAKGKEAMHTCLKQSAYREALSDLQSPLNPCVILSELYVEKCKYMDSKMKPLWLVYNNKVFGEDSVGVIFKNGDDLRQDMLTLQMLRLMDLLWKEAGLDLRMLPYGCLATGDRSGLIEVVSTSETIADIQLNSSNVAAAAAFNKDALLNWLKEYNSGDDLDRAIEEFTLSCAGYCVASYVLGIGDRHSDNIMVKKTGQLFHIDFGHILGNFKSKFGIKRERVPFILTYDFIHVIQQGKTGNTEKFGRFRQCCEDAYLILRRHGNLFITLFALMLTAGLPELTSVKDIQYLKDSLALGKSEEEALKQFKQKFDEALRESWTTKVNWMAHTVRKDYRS
T1 sequence (P27986 whole entry partner): as the sequence (P27986 whole entry partner) above

Row | Compound | IC50 [1] | IC50 [2] | IC50 [3] | IC50 [3, 4]
1 | CC[C@H](Nc1nc(N)nc(N)c1Cl)c1nc2c(F)ccc(Cl)c2c(=O)n1-c1cc[nH]n1 [Compound 68, (S)-5-chloro-2-(1-((2,6-diamino-5-chloropyrimidin-4-yl)amino)propyl)-8-fluoro-3-(1H-pyrazol-3-yl)quinazolin-4(3H)-one] | 44 nM | 20 nM | > 10000 nM | –
2 | C[C@H](Nc1nc(N)nc(N)c1Cl)c1nc2c(Cl)ccc(Cl)c2c(=O)n1-c1cc[nH]n1 [Compound 69, (S)-5,8-dichloro-2-(1-((2,6-diamino-5-chloropyrimidin-4-yl)amino)ethyl)-3-(1H-pyrazol-3-yl)quinazolin-4(3H)-one] | 13 nM | 6 nM | > 10000 nM | –
3 | Nc1nc(N)c(Cl)c(N[C@H](c2nc3c(F)ccc(Cl)c3c(=O)n2-c2cc[nH]n2)C2CC2)n1 [Compound 70, (S)-5-chloro-2-(cyclopropyl((2,6-diamino-5-chloropyrimidin-4-yl)amino)methyl)-8-fluoro-3-(1H-pyrazol-3-yl)quinazolin-4(3H)-one] | 30 nM | 14 nM | > 10000 nM | –
4 | Nc1nc(N)c(Cl)c(N[C@H](c2nc3c(Cl)ccc(Cl)c3c(=O)n2-c2cc[nH]n2)C2CC2)n1 [Compound 71, (S)-5,8-dichloro-2-(cyclopropyl((2,6-diamino-5-chloropyrimidin-4-yl)amino)methyl)-3-(1H-pyrazol-3-yl)quinazolin-4(3H)-one] | 38 nM | 13 nM | > 10000 nM | –
5 | C[C@H](Nc1ncnc(N)c1C#Cc1ccc(F)cn1)c1nc2cccc(Cl)c2c(=O)n1-c1cc[nH]n1 [Compound 72, (S)-2-(1-((6-amino-5-((5-fluoropyridin-2-yl)ethynyl)pyrimidin-4-yl)amino)ethyl)-5-chloro-3-(1H-pyrazol-3-yl)quinazolin-4(3H)-one] | 4 nM | 0.5 nM | – | 4000 nM
6 | CC[C@H](Nc1ncnc2scnc12)c1nc2cccc(C#N)c2c(=O)n1-c1cc[nH]n1 [Compound 73, (S)-4-oxo-3-(1H-pyrazol-3-yl)-2-(1-(thiazolo[5,4-d]pyrimidin-7-ylamino)propyl)-3,4-dihydroquinazoline-5-carbonitrile] | 95 nM | 18 nM | > 10000 nM | –
7 | CC[C@H](Nc1ncnc2scnc12)c1nc2c(C#N)cccc2c(=O)n1-c1cc[nH]n1 [Compound 74, (S)-4-oxo-3-(1H-pyrazol-3-yl)-2-(1-(thiazolo[5,4-d]pyrimidin-7-ylamino)propyl)-3,4-dihydroquinazoline-8-carbonitrile] | 20 nM | 5 nM | > 10000 nM | –
8 | CC[C@H](Nc1nc(N)nc(N)c1C#N)c1nc2c(C#N)cccc2c(=O)n1-c1cc[nH]n1 [Compound 75, (S)-2-(1-((2,6-diamino-5-cyanopyrimidin-4-yl)amino)propyl)-4-oxo-3-(1H-pyrazol-3-yl)-3,4-dihydroquinazoline-8-carbonitrile] | 1 nM | 3 nM | – | 5100 nM
9 | CC[C@H](Nc1nc(N)nc(C)c1C#N)c1nc2c(C#N)cccc2c(=O)n1-c1cc[nH]n1 [Compound 76, (S)-2-(1-((2-amino-5-cyano-6-methylpyrimidin-4-yl)amino)propyl)-4-oxo-3-(1H-pyrazol-3-yl)-3,4-dihydroquinazoline-8-carbonitrile] | 0.6 nM | 2 nM | – | 6300 nM
10 | CC[C@H](Nc1ncnc2scnc12)c1nc2cccc(Cl)c2c(=O)n1-c1n[nH]cc1Br [Compound 77, (S)-3-(4-bromo-1H-pyrazol-3-yl)-5-chloro-2-(1-(thiazolo[5,4-d]pyrimidin-7-ylamino)propyl)quinazolin-4(3H)-one] | 140 nM | 5 nM | – | 1700 nM
11 | CC[C@H](Nc1nc(N)nc(N)c1Cl)c1nc2c(C#N)cccc2c(=O)n1-c1cc[nH]n1 [Compound 78, (S)-2-(1-((2,6-diamino-5-chloropyrimidin-4-yl)amino)propyl)-4-oxo-3-(1H-pyrazol-3-yl)-3,4-dihydroquinazoline-8-carbonitrile] | 190 nM | 53 nM | > 10000 nM | –
12 | CC[C@H](Nc1nc(N)nc2[nH]nc(Br)c12)c1nc2cccc(C#N)c2c(=O)n1-c1cn[nH]c1 [Compound 79, (S)-2-(1-((6-amino-3-bromo-1H-pyrazolo[3,4-d]pyrimidin-4-yl)amino)propyl)-4-oxo-3-(1H-pyrazol-4-yl)-3,4-dihydroquinazoline-5-carbonitrile] | 650 nM | 340 nM | – | 9000 nM
13 | CC[C@H](Nc1nc(N)nc2[nH]nc(Br)c12)c1nc2c(C#N)cccc2c(=O)n1-c1cc[nH]n1 [Compound 80, (S)-2-(1-((6-amino-3-bromo-1H-pyrazolo[3,4-d]pyrimidin-4-yl)amino)propyl)-4-oxo-3-(1H-pyrazol-3-yl)-3,4-dihydroquinazoline-8-carbonitrile] | 22 nM | 35 nM | > 10000 nM | –
14 | CC[C@H](Nc1nc(N)nc2[nH]nc(Br)c12)c1nc2c(Cl)ccc(Cl)c2c(=O)n1-c1cc[nH]n1 [Compound 81, (S)-2-(1-((6-amino-3-bromo-1H-pyrazolo[3,4-d]pyrimidin-4-yl)amino)propyl)-5,8-dichloro-3-(1H-pyrazol-3-yl)quinazolin-4(3H)-one] | 12 nM | 16 nM | > 10000 nM | –

Continued, values first:

Row | IC50 [1] | IC50 [2] | IC50 [3] | IC50 [3, 4] | Compound
15 | 4700 nM | 4100 nM | > 10000 nM | – | CC[C@H](Nc1nc(Cl)nc2[nH]ncc12)c1nc2c(Cl)ccc(Cl)c2c(=O)n1-c1cc[nH]n1 [Compound 82, (S)-5,8-dichloro-2-(1-((6-chloro-1H-pyrazolo[3,4-d]pyrimidin-4-yl)amino)propyl)-3-(1H-pyrazol-3-yl)quinazolin-4(3H)-one]
16 | 13 nM | 1 nM | – | 240 nM | CC[C@H](Nc1nc(N)nc(N)c1C#N)c1nc2cccc(Cl)c2c(=O)n1-c1n[nH]cc1Br [Compound 83, (S)-2,4-diamino-6-((1-(3-(4-bromo-1H-pyrazol-3-yl)-5-chloro-4-oxo-3,4-dihydroquinazolin-2-yl)propyl)amino)pyrimidine-5-carbonitrile]
17 | 8 nM | 0.4 nM | – | 93 nM | C[C@H](Nc1nc(N)nc(N)c1C#N)c1nc2cccc(Cl)c2c(=O)n1-c1n[nH]cc1Br [Compound 84, (S)-2,4-diamino-6-((1-(3-(4-bromo-1H-pyrazol-3-yl)-5-chloro-4-oxo-3,4-dihydroquinazolin-2-yl)ethyl)amino)pyrimidine-5-carbonitrile]
18 | 170 nM | 4 nM | – | 9000 nM | C[C@H](Nc1ncnc2scnc12)c1nc2c(Cl)ccc(Cl)c2c(=O)n1-c1n[nH]cc1Br [Compound 85, (S)-3-(4-bromo-1H-pyrazol-3-yl)-5,8-dichloro-2-(1-(thiazolo[5,4-d]pyrimidin-7-ylamino)ethyl)quinazolin-4(3H)-one]
19 | 340 nM | 19 nM | > 10000 nM | – | CC[C@H](Nc1ncnc2scnc12)c1nc2c(Cl)ccc(Cl)c2c(=O)n1-c1n[nH]cc1Br [Compound 86, (S)-3-(4-bromo-1H-pyrazol-3-yl)-5,8-dichloro-2-(1-(thiazolo[5,4-d]pyrimidin-7-ylamino)propyl)quinazolin-4(3H)-one]
20 | 70 nM | 0.4 nM | – | 8200 nM | CC[C@H](Nc1ncnc2scnc12)c1nc2cccc(S(C)(=O)=O)c2c(=O)n1-c1cc[nH]n1 [Compound 87, (S)-5-(methylsulfonyl)-3-(1H-pyrazol-3-yl)-2-(1-(thiazolo[5,4-d]pyrimidin-7-ylamino)propyl)quinazolin-4(3H)-one]
21 | 4200 nM | 2700 nM | > 10000 nM | – | CC[C@H](Nc1nc(Cl)nc2[nH]nc(C)c12)c1nc2c(Cl)ccc(Cl)c2c(=O)n1-c1cc[nH]n1 [Compound 88, (S)-5,8-dichloro-2-(1-((6-chloro-3-methyl-1H-pyrazolo[3,4-d]pyrimidin-4-yl)amino)propyl)-3-(1H-pyrazol-3-yl)quinazolin-4(3H)-one]
22 | 3100 nM | 1900 nM | > 10000 nM | – | Cc1n[nH]c2nc(Cl)nc(N[C@@H](C)c3nc4cccc(Cl)c4c(=O)n3-c3cc[nH]n3)c12 [Compound 89, (S)-5-chloro-2-(1-((6-chloro-3-methyl-1H-pyrazolo[3,4-d]pyrimidin-4-yl)amino)ethyl)-3-(1H-pyrazol-3-yl)quinazolin-4(3H)-one]
23 | 1800 nM | 830 nM | > 10000 nM | – | C[C@H](Nc1nc(N)nc2[nH]ncc12)c1nc2cccc(Cl)c2c(=O)n1-c1cc[nH]n1 [Compound 90, (S)-2-(1-((6-amino-1H-pyrazolo[3,4-d]pyrimidin-4-yl)amino)ethyl)-5-chloro-3-(1H-pyrazol-3-yl)quinazolin-4(3H)-one]
24 | 3600 nM | 2400 nM | > 10000 nM | – | C[C@H](Nc1nc(Cl)nc2[nH]ncc12)c1nc2cccc(Cl)c2c(=O)n1-c1cc[nH]n1 [Compound 91, (S)-5-chloro-2-(1-((6-chloro-1H-pyrazolo[3,4-d]pyrimidin-4-yl)amino)ethyl)-3-(1H-pyrazol-3-yl)quinazolin-4(3H)-one]
25 | 10 nM | 6 nM | – | 3800 nM | C[C@H](Nc1nc(N)nc2[nH]nc(Br)c12)c1nc2cccc(Cl)c2c(=O)n1-c1cc[nH]n1 [Compound 92, (S)-2-(1-((6-amino-3-bromo-1H-pyrazolo[3,4-d]pyrimidin-4-yl)amino)ethyl)-5-chloro-3-(1H-pyrazol-3-yl)quinazolin-4(3H)-one]
26 | 16 nM | 9 nM | – | 3800 nM | CC[C@H](Nc1nc(N)nc(C)c1C#N)c1nc2c(C#N)cccc2c(=O)n1-c1cn[nH]c1 [Compound 93, (S)-2-(1-((2-amino-5-cyano-6-methylpyrimidin-4-yl)amino)propyl)-4-oxo-3-(1H-pyrazol-4-yl)-3,4-dihydroquinazoline-8-carbonitrile]
